Among the test systems are LOX IMVI melanoma; MOLT-4 leukemia; RXF 393 renal; SF-268 CNS; PC-3 prostate; SNB-75 CNS; SF-295 CNS; HOP-92 NSCLC; OVCAR-5 ovarian; SK-MEL-2 melanoma.
Holding throughout (test): NCI anticancer screen, dose series, 48 h

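How tested: cells in 96-well plates exposed to compound for 48 hours at five concentrations. The concentration for 50% growth inhibition is given as GI50. TGI is the concentration that stops growth completely.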

With `Clc1ccc2nc(Oc3ccccc3)cnc2c1`, the GI50 in the assay on LOX IMVI melanoma is above 100 µM; in the assay with MOLT-4 leukemia, above 100 µM; in the assay with RXF 393 renal it was above 100 µM; with SF-268 CNS, above 100 µM; in the assay with PC-3 prostate, above 100 µM; in the assay with SNB-75 CNS, 59 µM. The GI50 in the assay with SF-295 CNS is above 100 µM; with HOP-92 NSCLC, 14 µM; in the assay on OVCAR-5 ovarian it was above 100 µM. For the same compound, the TGI with LOX IMVI melanoma, in the assay with MOLT-4 leukemia, in the assay on RXF 393 renal, with SF-268 CNS, with PC-3 prostate and with SNB-75 CNS was above 100 µM in each case. The TGI in the assay with SF-295 CNS, with HOP-92 NSCLC and in the assay with OVCAR-5 ovarian was above 100 µM each time.
As to `Nc1nc(OCc2ccccc2)nc2[nH]ncc12`, the GI50 with LOX IMVI melanoma was 15 µM; in the assay on MOLT-4 leukemia, 24.3 µM; in the assay with SF-268 CNS it was 17.1 µM; in the assay with PC-3 prostate, 16.8 µM; in the assay with SF-295 CNS it was 16.9 µM; in the assay with HOP-92 NSCLC, above 100 µM. Also, the GI50 in the assay with OVCAR-5 ovarian was 11.9 µM; in the assay on SK-MEL-2 melanoma, 20.3 µM. Further, the TGI was 36.2 µM in the assay on LOX IMVI melanoma; above 100 µM with MOLT-4 leukemia; 48.4 µM with SF-268 CNS; 39.9 µM in the assay with PC-3 prostate; 31.1 µM with SF-295 CNS; above 100 µM in the assay with HOP-92 NSCLC. Also, the figures for the TGI with OVCAR-5 ovarian and in the assay on SK-MEL-2 melanoma were 28.2 µM and 47.9 µM, respectively.
Take `C=C(C)[C@@H]1CC[C@@]2(C)[C@H]1[C@H]1CCC3[C@@]4(C)CC[C@H](O)C(C)(C)[C@@H]4CC[C@@]3(C)[C@]1(C)C[C@@H]2O` (stereo partly drawn): the TGI in the assay on LOX IMVI melanoma, with MOLT-4 leukemia, in the assay with RXF 393 renal, in the assay on SF-268 CNS, with PC-3 prostate and in the assay on SNB-75 CNS was above 100 µM throughout. In addition, the values for the TGI in the assay with SF-295 CNS, in the assay on HOP-92 NSCLC and in the assay with OVCAR-5 ovarian were 80.6 µM, above 100 µM and above 100 µM, respectively.
As to `CCc1c2c(nc3cccc(N)c13)-c1cc3c(c(=O)n1C2)COC(=O)[C@]3(O)CC`, the GI50 with LOX IMVI melanoma was 0.00461 µM; in the assay with MOLT-4 leukemia it was below 0.001 µM; in the assay with RXF 393 renal, 0.0636 µM; in the assay on SF-268 CNS, 0.00233 µM; in the assay on PC-3 prostate, 0.349 µM; in the assay with SNB-75 CNS it was 0.0158 µM. Also, the GI50 with SF-295 CNS is 0.00441 µM; in the assay on HOP-92 NSCLC, 0.00331 µM. For the same compound, the TGI in the assay on LOX IMVI melanoma was 0.182 µM; in the assay with MOLT-4 leukemia, 0.15 µM; in the assay on SF-268 CNS, 78 µM; in the assay on PC-3 prostate, above 100 µM; in the assay on SNB-75 CNS, 16.9 µM; in the assay with OVCAR-5 ovarian, 0.115 µM.
Turning to `C[C@H](CSC(=O)c1ccccc1)C(=O)N1c2ccccc2C[C@H]1C(=O)O`, the TGI in the assay with MOLT-4 leukemia, in the assay with SF-268 CNS, in the assay with PC-3 prostate, in the assay with SNB-75 CNS, in the assay on SF-295 CNS and with OVCAR-5 ovarian was above 100 µM in each case.
For the compound `CC(=O)OC1C2(CC3N4C(=O)C5(CO)SSC4(CC31O)C(=O)N5C)OC(C)C(C)(C)C2=O` (stereo not drawn), the GI50 is below 0.01 µM in the assay on LOX IMVI melanoma; below 0.0179 µM with MOLT-4 leukemia; 0.0473 µM in the assay on RXF 393 renal; 0.896 µM in the assay with SF-268 CNS; 0.148 µM in the assay on PC-3 prostate; 1.96 µM in the assay on SF-295 CNS. Moreover, the GI50 in the assay on HOP-92 NSCLC is 0.0763 µM; in the assay with OVCAR-5 ovarian it was 0.0578 µM; in the assay with SK-MEL-2 melanoma, 0.339 µM. In addition, the TGI in the assay on LOX IMVI melanoma is below 0.0121 µM; in the assay on MOLT-4 leukemia, 0.0622 µM; with RXF 393 renal, 0.151 µM; in the assay on SF-268 CNS it was 2.95 µM; in the assay on PC-3 prostate, 0.588 µM; in the assay on SF-295 CNS, 3.94 µM. Besides, the TGI with HOP-92 NSCLC was found to be 0.214 µM; in the assay with OVCAR-5 ovarian, 0.208 µM; with SK-MEL-2 melanoma it was 1.79 µM.
In the case of `CCO[C@@H]1C2C=CC(C2)[C@H]1[N+](=O)[O-]` (stereo partly drawn), the TGI in the assay on LOX IMVI melanoma, in the assay on MOLT-4 leukemia, in the assay with RXF 393 renal, in the assay on SF-268 CNS, in the assay with SNB-75 CNS and with SF-295 CNS was above 100 µM throughout. Besides, the TGI with HOP-92 NSCLC, in the assay with OVCAR-5 ovarian and in the assay on SK-MEL-2 melanoma was above 100 µM in each case.
Consider `C/C=C(/CCCCNCCCC)[Si](C)(C)C`, for which the TGI stood at 28.3 µM with LOX IMVI melanoma; 31.2 µM in the assay on MOLT-4 leukemia; 21 µM in the assay with RXF 393 renal; 26.2 µM in the assay on SF-268 CNS; 27 µM in the assay with SNB-75 CNS; 29.2 µM in the assay with SF-295 CNS. For the same compound, the TGI came to 20.9 µM in the assay with HOP-92 NSCLC, 27.6 µM in the assay with OVCAR-5 ovarian and 33.1 µM with SK-MEL-2 melanoma.
For the compound `COc1ccc2c(C(=O)O)cc3cc(OC)c(OC)cc3c2c1`, the TGI with LOX IMVI melanoma, in the assay with MOLT-4 leukemia, in the assay with RXF 393 renal, with SF-268 CNS, in the assay on SNB-75 CNS and in the assay with SF-295 CNS was above 100 µM throughout. In addition, the TGI in the assay with HOP-92 NSCLC, with OVCAR-5 ovarian and in the assay with SK-MEL-2 melanoma was above 100 µM throughout.
As to `Cc1cn2c(/C=N/N/C(N)=N\N)c(-c3ccc(Cl)c([N+](=O)[O-])c3)nc2s1`, the GI50 with SF-268 CNS is 1.03 µM; in the assay on PC-3 prostate, 9.95 µM; in the assay with SF-295 CNS, 0.891 µM; with HOP-92 NSCLC, 2.55 µM; with OVCAR-5 ovarian it was 1.03 µM; in the assay with SK-MEL-2 melanoma it was 7.63 µM. Also, the TGI in the assay on SF-268 CNS stood at 2.37 µM; in the assay with PC-3 prostate, 24.8 µM; in the assay on SF-295 CNS, 1.8 µM; in the assay on HOP-92 NSCLC it was 13.3 µM; in the assay with OVCAR-5 ovarian, 2.1 µM; in the assay on SK-MEL-2 melanoma, 23.4 µM.
Consider `CCOC(=O)N1C2C=C(C)C(C3C(C)C(=O)N31)N(C(=O)c1ccccc1)O2` (stereo not drawn), for which the TGI in the assay with LOX IMVI melanoma, with MOLT-4 leukemia, with RXF 393 renal, in the assay with SF-268 CNS, in the assay with SNB-75 CNS and in the assay with SF-295 CNS was above 100 µM each time. For the same compound, the TGI in the assay with HOP-92 NSCLC, with OVCAR-5 ovarian and in the assay with SK-MEL-2 melanoma was above 100 µM in each case.
In the case of `Clc1ccc(CN2COc3c(cc(Cl)c4cccnc34)C2)cc1`, the TGI with LOX IMVI melanoma was 2.97 µM; with MOLT-4 leukemia it was 5.02 µM; in the assay on RXF 393 renal, 5.86 µM; with SF-268 CNS it was 12.7 µM; with SNB-75 CNS, 11 µM; in the assay with SF-295 CNS, 7.1 µM. The TGI in the assay on HOP-92 NSCLC was found to be 12.9 µM; in the assay on OVCAR-5 ovarian, 8.11 µM; in the assay on SK-MEL-2 melanoma, 3.87 µM.

For the origin of these results see PubChem BioAssay (NCI).
